Our source for the TGI and GI50 values is PubChem BioAssay (NCI).

Assay in all cases: inhibition of tumour cell growth, NCI panel, 48 h
Experiment [1] concerns EKVX NSCLC.
In experiment [2] the test system is SF-268 CNS.
Experiment [3] deals with OVCAR-8 ovarian.
The subject of experiment [4] is SK-MEL-2 melanoma.
Experiment [5] deals with A549 NSCLC.
In experiment [6] the test system is SN12C renal.
The subject of experiment [7] is HCT-15 colon.
For experiment [8], the system named is HT29 colon.
Experiment [9] concerns HCT-116 colon.
Experiment [10] relates to BT-549 breast.

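1) Cells in 96-well plates. 2) Compound, 48 h, 5 concentrations. 3) Linear interpolation between surrounding doses. 4) Unreached endpoint = highest concentration. Abbreviation: GI50, concentration required for 50% inhibition of growth. TGI: concentration producing complete growth inhibition.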

For the compound `CCCCCCCC1(c2ccc(N)cc2)CCC(=O)NC1=O` (configuration not stated), the TGI in [1], in [2], in experiment [3], in [4], in experiment [5] and in [6] was more than 100 µM throughout. The TGI in experiment [7] is more than 100 µM.

`Cc1ccc(C)c(N2C(=O)C(=O)C(c3nc4ccccc4o3)C(=O)C2=O)c1`: the TGI in [1], in experiment [2], in experiment [8], in [3], in [4] and in [5] was more than 100 µM each time. The TGI in experiment [6] was more than 100 µM; in [9], 90.5 µM; in experiment [7], more than 100 µM.

With `Clc1ccc(-c2c3ccc(=[N+]4CCCCC4)cc-3oc3cc(N4CCCCC4)ccc23)cc1`, in experiment [10], the GI50 was 0.154 µM and the TGI was 0.31 µM.

As for `CCC(C)CC(C)CC(C)/C=C(\C)C1=C(C)CC(C)(O)O1` (configuration not stated), the TGI in experiment [1], in experiment [8], in experiment [3], in experiment [5], in [6] and in experiment [9] was more than 100 µM each time. The TGI in experiment [7] is more than 100 µM.

As for `Cc1ccc(NC(=O)C(=O)CC(=O)c2c(C)n([O-])c3ccccc3[n+]2=O)cc1C`, the TGI in experiment [1], in experiment [2], in [8], in experiment [3], in experiment [4] and in [5] was more than 100 µM in each case. For the same compound, the TGI in [6], in experiment [9] and in experiment [7] was more than 100 µM each time.

As for `Cc1cccc(C(=O)O)c1C(=O)c1cccc2ccccc12`, the TGI in [1], in [2], in experiment [8], in experiment [3], in experiment [4] and in experiment [5] was more than 100 µM throughout. In addition, the TGI in [6], in [9] and in [7] was more than 100 µM each time.

On to `O=C(C(=O)n1ncc(Cl)c(Cl)c1=O)n1ncc(Cl)c(Cl)c1=O`, for which the TGI in [1] was more than 83.8 µM; in experiment [2], more than 100 µM; in [8], 34 µM; in experiment [3], more than 59.9 µM; in experiment [4] it was 74.9 µM; in experiment [5], more than 100 µM. Moreover, the TGI is more than 65.8 µM in [6], 29.5 µM in [9] and 46.5 µM in [7].

As for `COCCOc1cc(C)cc(/C=C(C)/C=C/C2=C(C)CCCC2(C)C)n1`, the TGI in experiment [1], in experiment [2], in [8], in experiment [3], in experiment [4] and in [5] was more than 100 µM throughout. In addition, the TGI in [6] and in experiment [9] was more than 100 µM each time.

As to `CCCCCC(=O)Nc1nc2nc[nH]c2c(=O)[nH]1`, the TGI in experiment [1], in [2], in [8], in [3], in experiment [4] and in [5] was more than 100 µM throughout. Further, the TGI in experiment [6], in experiment [9] and in experiment [7] was more than 100 µM in each case.

As for `COc1ccc2nc(C(=O)c3ccccc3)c(C)cc2c1`, the TGI in [1] is more than 100 µM; in experiment [2] it was 56.3 µM; in experiment [8], 11 µM; in [3], more than 46.3 µM; in experiment [4], more than 100 µM; in experiment [5] it was more than 70 µM. Further, the TGI is more than 65.8 µM in experiment [6], more than 40.7 µM in experiment [9] and more than 40.8 µM in experiment [7].

With `N#Cc1ccccc1NC(=O)C(=O)C1NC(=S)NC1=O` (configuration not stated), the TGI in experiment [1], in experiment [2], in experiment [8], in experiment [3], in [5] and in experiment [6] was more than 100 µM throughout. Moreover, the TGI in experiment [9] and in experiment [7] was more than 100 µM in each case.

In the case of `CC1OC(=O)C(O)=C1O` (configuration not stated), the TGI in experiment [1], in experiment [2], in experiment [8], in [3], in [4] and in experiment [5] was more than 100 µM each time. Moreover, the TGI in experiment [6], in [9] and in [7] was more than 100 µM throughout.

Regarding `CC(C)c1cc(C(C)C)c(S(=O)(=O)N=[N+]=[N-])c(C(C)C)c1`, the TGI in experiment [2], in experiment [8], in experiment [3], in experiment [5], in [6] and in [9] was more than 100 µM throughout. Also, in [7], the TGI is more than 100 µM.

Turning to `COc1ccc(C2=Nc3ccccc3SC(C)C2)cc1OC` (configuration not stated), the TGI in [1] was 56.5 µM; in experiment [2] it was 43.5 µM; in [8] it was 37.2 µM; in [3] it was 43.8 µM; in experiment [4] it was 72.2 µM; in [6], 42 µM. Besides, the TGI came to 32.1 µM in experiment [9] and 31.9 µM in experiment [7].

As for `COc1cc(/C=C/c2ccc(O)c(OC)c2)cc(OC)c1`, the TGI was more than 100 µM in experiment [1]; more than 100 µM in experiment [2]; 85.8 µM in [8]; more than 100 µM in [3]; more than 100 µM in experiment [5]; more than 100 µM in experiment [9]. In [7], this compound had a TGI of 45.8 µM.

Turning to `NC1c2ccccc2Nc2ccccc21`, the TGI in experiment [1] is 20.7 µM; in experiment [2], 13.9 µM; in experiment [8], 20.4 µM; in experiment [3], 17.1 µM; in experiment [4], 29.8 µM; in experiment [5] it was 19.8 µM. The results for the TGI in experiment [6], in [9] and in [7] were 19 µM, 13.6 µM and 14 µM, respectively.

For `Cc1ccc2nc(NC(=O)C(=O)C(C#N)c3ccc(Cl)cc3)sc2c1` (configuration not stated), the TGI in experiment [1], in [2], in experiment [8], in experiment [3], in [4] and in experiment [5] was more than 50 µM each time. The TGI in experiment [6], in [9] and in [7] was more than 50 µM throughout.

Regarding `COc1ccc2oc3c(OC)c(OC)c(OC)cc3c(=O)c2c1`, the TGI in experiment [1], in experiment [2], in experiment [8], in experiment [3], in [4] and in experiment [5] was more than 100 µM throughout. Moreover, the TGI in experiment [6], in [9] and in experiment [7] was more than 100 µM each time.

Regarding `N#CC(C(=O)CCCC(=O)Nc1ccc(Cl)cc1Cl)c1ccccc1` (configuration not stated), the TGI in experiment [1], in experiment [2], in experiment [8], in experiment [3], in [4] and in experiment [5] was more than 100 µM in each case. Further, the TGI in experiment [6], in experiment [9] and in [7] was more than 100 µM throughout.

As for `Cc1ccc(N=C[N-]c2ccc(C)cc2)cc1.Cc1ccc(N=C[N-]c2ccc(C)cc2)cc1.O=C([O-])C(F)(F)F.O=C([O-])C(F)(F)F.[OH3+].[OH3+].[Rh+2].[Rh+2]`, the GI50 in [1] is 50.2 µM; in [2], 28.4 µM; in experiment [8] it was 19.4 µM; in [3], 35.1 µM; in [4], 32.6 µM; in experiment [5], more than 100 µM. The GI50 was 34.9 µM in [6], 16.7 µM in experiment [9] and 46.1 µM in experiment [7]. For the same compound, the TGI was more than 100 µM in experiment [1]; 81.6 µM in experiment [2]; 42.1 µM in [8]; more than 100 µM in experiment [3]; 69.8 µM in [4]; more than 100 µM in experiment [5]. Also, the TGI in experiment [6] was more than 100 µM; in [9], 35.4 µM; in experiment [7], more than 100 µM.

Consider `COc1cc2c(c(OC)c1OC)-c1ccc(SC)c(=O)cc1[C@@H](NCc1ccc([N+](=O)[O-])cc1)CC2`, for which the TGI in [1] is more than 100 µM; in experiment [8] it was 0.011 µM; in experiment [4], 19 µM; in [5] it was more than 100 µM; in experiment [6] it was more than 100 µM; in [7] it was 0.0324 µM.

Regarding `CC(C)c1cccc(C(C)C)c1N1C(=O)C(=O)C(c2nc3ccccc3o2)C(=O)C1=O`, the TGI in experiment [1], in experiment [2], in experiment [8], in experiment [3], in [4] and in experiment [5] was more than 100 µM each time. In addition, the TGI in experiment [6], in [9] and in experiment [7] was more than 100 µM each time.

Regarding `CC1=C(C(=O)Nc2ccccc2)C(c2ccccc2Cl)C(C(=O)Nc2ccccc2)=C(C)N1`, the TGI in experiment [1] was 37.7 µM; in experiment [2], 50.5 µM; in experiment [8] it was 37.9 µM; in [3], 91.8 µM; in [4] it was 33.1 µM; in experiment [5] it was more than 100 µM. Besides, the TGI was determined as 33 µM in experiment [6], 47.6 µM in experiment [9] and 38.5 µM in [7].

Turning to `O=C(O)CCNS(=O)(=O)c1ccc2ccccc2c1`, the TGI in experiment [1], in [2], in [8], in experiment [3], in [4] and in experiment [5] was more than 100 µM in each case. Moreover, the TGI in experiment [6] and in experiment [7] was more than 100 µM each time.

As for `Cc1c(C(=O)O)n(C)c(=O)n(C)c1=O`, the TGI in experiment [1], in [2], in experiment [8], in experiment [3], in experiment [4] and in experiment [5] was more than 100 µM throughout. The TGI in experiment [6], in [9] and in [7] was more than 100 µM throughout.

As for `Cc1cc(N(CCOS(C)(=O)=O)CCOS(C)(=O)=O)ccc1C(=O)O`, the GI50 in experiment [1], in experiment [2], in experiment [8], in [3], in experiment [5] and in experiment [6] was more than 100 µM throughout. The GI50 in [9] and in experiment [7] was more than 100 µM in each case. Besides, the TGI in [1], in experiment [2], in experiment [8], in [3], in [5] and in experiment [6] was more than 100 µM in each case. Besides, the TGI in [9] and in [7] was more than 100 µM in each case.

In the case of `CC1=C(SC#N)S(=O)(=O)N(c2ccccc2)C(C)=C1SC#N`, the TGI in experiment [2], in [8], in [3], in experiment [4], in experiment [5] and in [6] was more than 100 µM in each case. The TGI was 69.8 µM in experiment [9] and more than 100 µM in [7].

Consider `COC1=CC(C2c3cc4c(cc3[C@@H](Nc3ccc(F)cc3)C3COC(=O)[C@H]23)OCO4)=CC(=O)C1=O` (some centres not stated), for which the TGI in [1] was more than 59.1 µM; in [2] it was 36.6 µM; in experiment [8] it was more than 68.3 µM; in experiment [3], more than 51.4 µM; in experiment [5], 20.4 µM; in experiment [6] it was 24.8 µM. The TGI is 30.5 µM in experiment [9] and 26.9 µM in [7].

Turning to `C1CCCCc2nc3c(nc2CCC1)c1nc2c(nc1c1nc4c(nc31)CCCCCCCC4)CCCCCCCC2`, the TGI in [2], in experiment [8], in experiment [3], in [4], in experiment [5] and in experiment [6] was more than 100 µM throughout. Moreover, the TGI in [9] and in experiment [7] was more than 100 µM throughout.
